Measurements: patent publication US5476874A, “New HIV protease inhibitors” (Merck & Co., Inc., priority 1994, dated 1995)

Target: T1, HIV protease (Human immunodeficiency virus type 1 group M subtype B, UniProt P04585)
T1 construct: the protease expressed in Escherichia coli; made in house; host or cells: Escherichia coli
Assay: Assay for Inhibition of Microbial Expressed HIV Protease
Assay type: biochemical
Conditions: protease expressed in Escherichia coli; peptide substrate Val-Ser-Gln-Asn-(betanaphthyl)Ala-Pro-Ile-Val; 50 mM Na acetate, pH 5.5, 30° C., 1 hour; HPLC readout
Method: Assay for Inhibition of Microbial Expressed HIV Protease
Inhibition studies of the reaction of the protease expressed in Escherichia coli with a peptide substrate [Val-Ser-Gln-Asn-(betanaphthyl)Ala-Pro-Ile-Val, 0.5 mg/mL at the time the reaction is initiated] were in 50 mM Na acetate, pH 5.5, at 30° C. for 1 hour. Various concentrations of inhibitor in 1.0 ul DMSO were added to 25 ul of the peptide solution in water. The reaction is initiated by the addition of 15 ul of 0.33 nM protease […] in a solution of 0.133 M Na acetate pH 5.5 and 0.26% bovine serum albumin. The reaction was quenched with 160 ul of 5% phosphoric acid. Products of the reaction were separated by HPLC (VYDAC wide pore 5 cm C-18 reverse phase, acetonitrile gradient, 0.1% phosphoric acid). The extent of inhibition of the reaction was determined from the peak heights of the products.

CC(C)CN(CC(O)CC(Cc1ccccc1)C(=O)NC1c2ccccc2CC1O)C(=O)OCc1ccccc1 [Compound A, N-(2'(R)-hydroxy-1'(S)-indanyl)-2(R)-phenylmethyl-4(S)-hydroxy-5-[((2'''-methyl)propyl)-benzyloxycarbonyl]-amino-pentaneamide]
IC50: 8 to 9 nM
